Test results from PubChem BioAssay AID624167 (Sanford-Burnham Center for Chemical Genomics, 2012).
The source made the active and inactive calls.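 Rule for the calls: active = mean IC50 for reducing PEG3 promoter reporter signal at or below a set limit, with IC50 above the limit in both counter screens; inactive = the rest, including counter screen hits.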

Key:
[1] = system: PEG-3; assay: inhibition of PEG-3 promoter-driven reporter – cell-based, HeLa, luciferase, CREF/GAPDH counter-screen panel, dose response (AID 624167); details: HeLa PEG-Prom luciferase reporter, overnight, CREF/GAPDH counter-screens
[2] = system: GAPDH; assay: as above; details: CREF/GAPDH counter-screens
[3] = as above; details: CREF/GAPDH counter-screens; GAPDH; mean of runs
[4] = system: Rat fibroblasts (CREF); assay: as above; details: CREF/GAPDH counter-screens
[5] = molecular target: PEG-3 (UniProt Q6IN02); assay: as above; details: HeLa PEG-Prom luciferase reporter, overnight, CREF/GAPDH counter-screens, mean of runs
Sequence of PEG-3 (UniProt Q6IN02) (Q6IN02 whole entry, looked up): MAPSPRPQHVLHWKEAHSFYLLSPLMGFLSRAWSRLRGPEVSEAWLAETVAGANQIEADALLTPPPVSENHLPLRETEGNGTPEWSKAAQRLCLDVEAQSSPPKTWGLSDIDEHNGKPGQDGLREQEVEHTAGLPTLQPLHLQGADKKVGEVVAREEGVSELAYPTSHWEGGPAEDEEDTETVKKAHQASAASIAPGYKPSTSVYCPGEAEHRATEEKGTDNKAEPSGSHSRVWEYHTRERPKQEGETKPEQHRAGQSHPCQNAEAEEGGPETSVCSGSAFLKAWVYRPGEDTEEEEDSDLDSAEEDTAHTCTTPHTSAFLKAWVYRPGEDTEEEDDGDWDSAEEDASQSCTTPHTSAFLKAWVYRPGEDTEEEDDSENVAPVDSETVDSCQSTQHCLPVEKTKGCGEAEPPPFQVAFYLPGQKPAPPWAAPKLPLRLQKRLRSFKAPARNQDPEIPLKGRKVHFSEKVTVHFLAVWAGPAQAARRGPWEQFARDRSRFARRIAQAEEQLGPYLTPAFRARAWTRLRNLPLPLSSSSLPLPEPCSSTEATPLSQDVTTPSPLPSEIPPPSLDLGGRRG

[6] = run 1, dose range 1, individual replicate IC50 per panel
[7] = run 2, dose range 1, individual replicate IC50 per panel

With `O=C(NNC(=O)c1cccnc1SCc1cccc([N+](=O)[O-])c1)c1ccccn1` the IC50 [1, 6] was 2.76 µM, the IC50 [1, 7] was 4.45 µM and the IC50 [2, 6] was > 100 µM. For the same compound, the IC50 [2, 7] was > 100 µM, the IC50 [3] was > 100 µM (inactive) and the IC50 ([4]; mean of runs) was 31.4 µM. For the same compound, the IC50 [4, 6] was 5.66 µM, the IC50 [4, 7] was 57.1 µM and the IC50 [5] was 3.6 µM.

Work on `Cc1ccc(OCC(=O)c2cc(C)n(Cc3ccco3)c2C)c([N+](=O)[O-])n1` yielded an IC50 [1, 6] of 6.5 µM, an IC50 [1, 7] of 7.13 µM and an IC50 [2, 6] of 7.31 µM. For the same compound, the IC50 [2, 7] was 18.7 µM, the IC50 [3] was 13 µM and the IC50 ([4]; mean of runs) was > 100 µM (inactive). The IC50 [4, 6] was > 100 µM, the IC50 [4, 7] was > 100 µM and the IC50 [5] was 6.81 µM.

`O=[N+]([O-])c1nn(-c2ccc3c(c2)OCCO3)n(O)c1=Nc1ccc(Cl)cc1` gave an IC50 [1, 6] of 1.07 µM, an IC50 [1, 7] of 0.271 µM and an IC50 [2, 6] of 2.94 µM. The IC50 [2, 7] was 7.41 µM, the IC50 [3] was 5.17 µM and the IC50 ([4]; mean of runs) was > 100 µM (inactive). The IC50 [4, 6] was > 100 µM, the IC50 [4, 7] was > 100 µM and the IC50 [5] was 0.673 µM.

For `CN1C/C(=C/c2ccccc2[N+](=O)[O-])C(=O)/C(=C\c2ccccc2[N+](=O)[O-])C1`, the IC50 [1, 6] was 5.67 µM, the IC50 [1, 7] was 6.14 µM and the IC50 [2, 6] was > 100 µM. For the same compound, the IC50 [2, 7] was 79.4 µM, the IC50 [3] was “inactive” and the IC50 ([4]; mean of runs) was 27.4 µM. The IC50 [4, 6] was 30 µM, the IC50 [4, 7] was 24.9 µM and the IC50 [5] was 5.91 µM.

With `CCCC(=O)NC(c1ccc(OC)cc1)c1ccc2cccnc2c1O` (configuration not stated) the IC50 [1, 6] was 2.76 µM, the IC50 [1, 7] was 0.719 µM and the IC50 [2, 6] was 57.7 µM. For the same compound, the IC50 [2, 7] was 70.4 µM, the IC50 [3] was “inactive” and the IC50 ([4]; mean of runs) was 50.7 µM (inactive). The IC50 [4, 6] was > 100 µM, the IC50 [4, 7] was 1.48 µM and the IC50 [5] was 1.74 µM.

Compound `C=CCn1c(C)cc(C(=O)COc2ccc(C)nc2[N+](=O)[O-])c1C` has an IC50 [1, 6] of 1.55 µM, an IC50 [1, 7] of 1.26 µM and an IC50 [2, 6] of 8.8 µM. For the same compound, the IC50 [2, 7] was 39.1 µM, the IC50 [3] was 24 µM and the IC50 ([4]; mean of runs) was > 100 µM (inactive). The IC50 [4, 6] was > 100 µM, the IC50 [4, 7] was > 100 µM and the IC50 [5] was 1.4 µM.

For `CS(=O)(=O)c1ccc(-c2sc3ccccc3c2C#CCCO)cc1`, the IC50 [1, 6] was 14.3 µM, the IC50 [1, 7] was 0.572 µM and the IC50 [2, 6] was 30.2 µM. For the same compound, the IC50 [2, 7] was 27.7 µM, the IC50 [3] was 28.9 µM and the IC50 ([4]; mean of runs) was 32.3 µM. For the same compound, the IC50 [4, 6] was 27.7 µM, the IC50 [4, 7] was 36.9 µM and the IC50 [5] was 7.42 µM.

Work on `CN1CCC2(CC1)N=C(c1ccc(F)cc1)C(=S)N2C(=O)c1ccc(C(C)(C)C)cc1` yielded an IC50 [1, 6] of 6.48 µM, an IC50 [1, 7] of 1.01 µM and an IC50 [2, 6] of 20.4 µM. The IC50 [2, 7] was 20.6 µM, the IC50 [3] was 20.5 µM and the IC50 ([4]; mean of runs) was 36.5 µM. It also gave an IC50 [4, 6] of 28.6 µM, an IC50 [4, 7] of 44.5 µM and an IC50 [5] of 3.75 µM.

In the case of `COc1ccc2c(c1)c(=Cc1ccc(N(C)C)cc1)c1cc(-c3ccccc3)[n+](C)n12`, the IC50 [1, 6] is reported as 3.17 µM, the IC50 [1, 7] is reported as 1.37 µM and the IC50 [2, 6] is reported as 6.61 µM. For the same compound, the IC50 [2, 7] was 7.46 µM, the IC50 [3] was 7.04 µM and the IC50 ([4]; mean of runs) was 26.9 µM. It also gave an IC50 [4, 6] of 24.8 µM, an IC50 [4, 7] of 29.1 µM and an IC50 [5] of 2.27 µM.

For `O=C(O)c1ccc(N/N=C/c2ccc(OC(=O)c3cccc(Cl)c3)cc2)cc1`, the IC50 [1, 6] was 6.27 µM, the IC50 [1, 7] was 12.9 µM and the IC50 [2, 6] was 0.554 µM. For the same compound, the IC50 [2, 7] was 5.92 µM, the IC50 [3] was 3.23 µM and the IC50 ([4]; mean of runs) was > 100 µM (inactive). For the same compound, the IC50 [4, 6] was > 100 µM, the IC50 [4, 7] was > 100 µM and the IC50 [5] was 9.61 µM.

`CC(=O)OC1CC[C@]2(C#N)[C@H]3CC[C@]4(C)[C@H](C5C=CC(=O)O5)CCC4(O)C3CCC2(O)C1` (some centres not stated) gave an IC50 [1, 6] of 9.87 µM, an IC50 [1, 7] of 11 µM and an IC50 [2, 6] of 3.88 µM. The IC50 [2, 7] was 16.4 µM, the IC50 [3] was 10.1 µM and the IC50 ([4]; mean of runs) was > 100 µM (inactive). The IC50 [4, 6] was > 100 µM, the IC50 [4, 7] was > 100 µM and the IC50 [5] was 10.4 µM.

With `COc1cc(/C=C2\SC(=Nc3ccccc3OC)NC2=O)ccc1O` the IC50 [1, 6] was 4.7 µM, the IC50 [1, 7] was > 100 µM and the IC50 [2, 6] was > 100 µM. The IC50 [2, 7] was > 100 µM, the IC50 [3] was > 100 µM (inactive) and the IC50 ([4]; mean of runs) was > 100 µM (inactive). For the same compound, the IC50 [4, 6] was > 100 µM, the IC50 [4, 7] was > 100 µM and the IC50 [5] was “inactive”.

In the case of `Clc1ccccc1/C=C/c1nc(-c2ccccn2)no1`, the IC50 [1, 6] is reported as 3.68 µM, the IC50 [1, 7] is reported as > 100 µM and the IC50 [2, 6] is reported as 3.51 µM. The IC50 [2, 7] was < 0.2 µM, the IC50 [3] was 1.86 µM and the IC50 ([4]; mean of runs) was 28 µM. For the same compound, the IC50 [4, 6] was 25.7 µM, the IC50 [4, 7] was 30.3 µM and the IC50 [5] was “inactive”.

For `COc1ccc(-n2cc(-c3ccccc3)c3c(N4CCOCC4)ncnc32)cc1`, the IC50 [1, 6] was 12.1 µM, the IC50 [1, 7] was 8.51 µM and the IC50 [2, 6] was 21.3 µM. The IC50 [2, 7] was 21.4 µM, the IC50 [3] was 21.4 µM and the IC50 ([4]; mean of runs) was 68.5 µM (inactive). For the same compound, the IC50 [4, 6] was 66.9 µM, the IC50 [4, 7] was 70.1 µM and the IC50 [5] was 10.3 µM.

`CN(C)CC1CCC/C(=C\c2ccc(OC(=O)c3ccc(Cl)cc3)cc2)C1=O` (configuration not stated) gave an IC50 [1, 6] of 6.76 µM, an IC50 [1, 7] of 4.86 µM and an IC50 [2, 6] of 49.8 µM. For the same compound, the IC50 [2, 7] was 57.7 µM, the IC50 [3] was “inactive” and the IC50 ([4]; mean of runs) was > 100 µM (inactive). The IC50 [4, 6] was > 100 µM, the IC50 [4, 7] was > 100 µM and the IC50 [5] was 5.81 µM.

For `COc1cc(Nc2c3ccccc3nc3ccccc23)cc(OC)c1OC`, the IC50 [1, 6] was 8.96 µM, the IC50 [1, 7] was 7.19 µM and the IC50 [2, 6] was 33.2 µM. For the same compound, the IC50 [2, 7] was 35 µM, the IC50 [3] was “inactive” and the IC50 ([4]; mean of runs) was 36.2 µM. It also gave an IC50 [4, 6] of 26.9 µM, an IC50 [4, 7] of 45.5 µM and an IC50 [5] of 8.07 µM.

With `COc1cc(OC)c2cc(C(=O)N/N=C/c3ccccc3O)[nH]c2c1` the IC50 [1, 6] was 4.95 µM, the IC50 [1, 7] was 3.93 µM and the IC50 [2, 6] was 75.1 µM. The IC50 [2, 7] was 51.5 µM, the IC50 [3] was “inactive” and the IC50 ([4]; mean of runs) was 28.8 µM. It also gave an IC50 [4, 6] of 24.8 µM, an IC50 [4, 7] of 32.9 µM and an IC50 [5] of 4.44 µM.

For `CCC(C)Cn1c(O)cc2nn(-c3nc4ccccc4s3)c(=O)c-2c1C` (configuration not stated), the IC50 [1, 6] was 5.8 µM, the IC50 [1, 7] was < 0.2 µM and the IC50 [2, 6] was 3.06 µM. The IC50 [2, 7] was 2.52 µM, the IC50 [3] was 2.79 µM and the IC50 ([4]; mean of runs) was 65.6 µM (inactive). The IC50 [4, 6] was 72.2 µM, the IC50 [4, 7] was 58.9 µM and the IC50 [5] was 3 µM.

In the case of `COc1cccc(/C=N/NC(=O)c2c(C)nc3ccc(Cl)cn23)c1O`, the IC50 [1, 6] is reported as 0.994 µM, the IC50 [1, 7] is reported as 0.513 µM and the IC50 [2, 6] is reported as > 100 µM. For the same compound, the IC50 [2, 7] was > 100 µM, the IC50 [3] was > 100 µM (inactive) and the IC50 ([4]; mean of runs) was 69.6 µM (inactive). For the same compound, the IC50 [4, 6] was > 100 µM, the IC50 [4, 7] was 39.3 µM and the IC50 [5] was 0.754 µM.

For `CC(C)CCCCCCCCCCCCC(=O)NCC(=O)NC1C(O)C(O)C(Nc2ncnc3nc[nH]c23)OC1C(O)CO` (configuration not stated), the IC50 [1, 6] was 3.44 µM, the IC50 [1, 7] was < 0.2 µM and the IC50 [2, 6] was < 0.2 µM. For the same compound, the IC50 [2, 7] was < 0.2 µM, the IC50 [3] was < 0.2 µM and the IC50 ([4]; mean of runs) was 50.1 µM (inactive). The IC50 [4, 6] was < 0.2 µM, the IC50 [4, 7] was > 100 µM and the IC50 [5] was 1.82 µM.

With `Cc1nc(C)c(C(=O)N/N=C/c2cc(Br)ccc2O)s1` the IC50 [1, 6] was 5.65 µM, the IC50 [1, 7] was > 100 µM and the IC50 [2, 6] was > 100 µM. The IC50 [2, 7] was > 100 µM, the IC50 [3] was > 100 µM (inactive) and the IC50 ([4]; mean of runs) was 64.9 µM (inactive). For the same compound, the IC50 [4, 6] was 52.3 µM, the IC50 [4, 7] was 77.5 µM and the IC50 [5] was “inactive”.

In the case of `Cc1ccc(C(C[N+](=O)[O-])Sc2ccc(N)cc2)cc1` (configuration not stated), the IC50 [1, 6] is reported as 9.59 µM, the IC50 [1, 7] is reported as 6.49 µM and the IC50 [2, 6] is reported as 21.1 µM. The IC50 [2, 7] was 16.1 µM, the IC50 [3] was 18.6 µM and the IC50 ([4]; mean of runs) was 62.8 µM (inactive). For the same compound, the IC50 [4, 6] was 25.6 µM, the IC50 [4, 7] was > 100 µM and the IC50 [5] was 8.04 µM.

For `CC(=O)c1cccc(-c2ccnc3c2CC(C(=O)Nc2cccc(NS(C)(=O)=O)c2)O3)c1` (configuration not stated), the IC50 [1, 6] was 6.56 µM, the IC50 [1, 7] was 4.65 µM and the IC50 [2, 6] was > 100 µM. The IC50 [2, 7] was 90.3 µM, the IC50 [3] was “inactive” and the IC50 ([4]; mean of runs) was > 100 µM (inactive). For the same compound, the IC50 [4, 6] was > 100 µM, the IC50 [4, 7] was > 100 µM and the IC50 [5] was 5.6 µM.
